One series deals with MCF7-Tead cell line. The series can be described thus: TEAD reporter assay. The settings on record: MCF7-Tead cells, luciferase activity after 24 hours. In kind it is cell-based. As for the experimental part: (§1) MCF7-Tead cell line was obtained from BPS BIOSCIENCE (catalog number 60618) and was maintained in DMEM containing 10% fetal calf serum, 2 mM glutamine, and 400 μg/ml G418. Cells were grown in a humidified incubator at 37° C. with 5% CO2. Cells were distributed to flat bottom white polystyrene TC treated 384 well plates at a density of 3,500 cells/well in 30 uL. Cells were incubated for 24 hours at 37° C. with 5% CO2. Cells were acoustically dosed using an Echo 555, with compounds serially diluted in 100% DMSO. Plates were incubated for an additional 24 hours. Cells were examined for luciferase activity through the addition of 30 μL Bright-Glo luciferase (Promega catalog number E2620). Plates were incubated for 10 minutes at room temperature and luminescence was read using Tecan plate reader. The data obtained with each compound was exported to […] software to perform curve fitting analysis.
Background: A reporter such as luciferase makes a cellular process visible.

A short description of series [1]: Solubility (thermodynamic, shake-flask). The format is physicochemical. The following applies: thermodynamic from solid; aqueous phosphate buffer (pH 7.4), 24 hours at 25° C. On the procedure: The thermodynamic solubility of a research compound is measured under standard conditions. It is a shake-flask approach that uses 10 mM DMSO solutions which are supplied from the Compound Managements liquid store and is a high throughput method. The dried compounds are equilibrated in an aqueous phosphate buffer (pH 7.4) for 24 hours at 25° C., the portion with the dissolved compound is then separated from the remains. The solutions are analyzed and quantified using UPLC/MS/MS, QC-samples are incorporated in each assay-run to ensure the quality of the assay.

For series [2], the system named is MCF7-Luciferase cell line. As to the kind of experiment: Control reporter (MCF7-Luciferase). The settings on record: MCF7-Luciferase cells, luciferase activity after 24 hours. The format is cell-based. As for the experimental part: (iii) Control Reporter (MCF7-Luciferase)
as §1, with “MCF7-Luciferase” for “MCF7-Tead”, “BPS BIOSCIENCE” left out, “SC050-L)” for “60618)”, “glutamine.” for “glutamine, and 400 μg/ml G418.”, “μL.” for “uL.”

A further series concerns the target TEAD4(217-434) (Homo sapiens (Human), UniProt Q15561). As to the kind of experiment: TEAD4 FRET. The format is binding. The following applies: depalmitoylated, biotinylated TEAD4(217-434), FAM labelled Probe A, 120 min at 25° C. As for the experimental part: Compounds were dosed with a final DMSO concentration of 1% (v/v). Compound IC50 values were assessed following a 10-point, half-log10 dilution schema starting at 100 μM compound concentration. Specifically, human TEAD protein from TEAD4(217-434) was cloned into an overexpression vector, expressed as an N-terminal HIS-TEV-Avi-tagged fusion protein in E coli, and subsequently purified, then protein was chemically depalmitoylated & biotinylated. The assay was performed in 384-well LV plates (384-well black, medium binding, PS, HIBASE, GREINER #784076) and run in the presence and absence of the compound of interest. Each well of 5 μL assay mixture contained 10 mM Tris-HCl (pH 7.5), 100 mM NaCl, 0.05 mM EDTA, 1 mM TECP, 1% DMSO, 0.03% Pluronic acid F127, 20 nM dePal Avi TEAD4 (217-434)-depalmitoylated & biotinylated protein, 0.8 nM Streptavidin Terbium cryptate (CisBio #610SATLB), 625 nM FAM labelled Probe A. Reactions were incubated at 25° C. for 120 min before reading on a PHERASTAR FSX Plate Reader (337 520 490 HTRF module required) (Supplier BMP).
The data file from the PHERAstar FSX contains both the acceptor (520 nm) and donor channels (490 nm) (“Channel A”=acceptor channel (520 nm), “Channel B”=donor channel (490 nm)). The ratio of the donor and acceptor (Channel A/Channel B) is calculated within Genedata Assay Analyzer.
Probe A is 3′,6′-dihydroxy-3-oxo-N-{8-[2-(5-{2-[4-(trifluoromethyl)anilino]phenyl}-2H-tetrazol-2-yl)acetamido]octyl}-3H-spiro[[2]benzofuran-1,9′-xanthene]-5-carboxamide;

Values after ≈ are worked out from the molar mass of the structure shown.

One may read the IC50 as the midpoint of a concentration-inhibition curve. A high value points to lower potency. A word on the solubility: it is the concentration that dissolves in the medium under given conditions. Higher therefore signals a readily soluble substance.

Sequence of TEAD4(217-434) (Q15561 217-434): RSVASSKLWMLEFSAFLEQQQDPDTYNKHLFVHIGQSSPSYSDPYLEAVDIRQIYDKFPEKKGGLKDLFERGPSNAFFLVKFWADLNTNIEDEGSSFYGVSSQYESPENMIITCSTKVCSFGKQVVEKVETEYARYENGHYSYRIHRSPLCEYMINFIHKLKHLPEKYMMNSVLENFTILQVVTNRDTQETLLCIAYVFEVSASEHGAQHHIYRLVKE

With `C=CC(=O)N1C[C@H](F)[C@H](Nc2nnc(-c3ccc(C(F)(F)F)cc3)c3ccccc23)C1` [Example 10, 1-((3S,4R)-3-fluoro-4-((4-(4-(trifluoromethyl)phenyl)phthalazin-1-yl)amino)pyrrolidin-1-yl)prop-2-en-1-one], the concentration for half-maximal inhibition (IC50) in the series on MCF7-Tead cell line amounted to 15 nM; in series [2] it was 15600 nM; against TEAD4(217-434) it was 32 nM. Besides, the solubility at 24 h in series [1] came to 67 µM (≈ 28.8 µg/mL).

As to `C=CC(=O)N1CC[C@@H](Nc2ncc(-c3ccc(C(F)(F)F)cn3)c3ncccc23)C1` [Comparative Example A, (R)-1-(3-((8-(5-(trifluoromethyl)pyridin-2-yl)-1,6-naphthyridin-5-yl)amino)pyrrolidin-1-yl)prop-2-en-1-one, reference compound], the IC50 with MCF7-Tead cell line was 592 nM; in series [2], over 31700 nM.

For the molecule `C=CC(=O)N1C[C@@H](F)[C@H](Nc2nnc(-c3ccc(C(F)(F)F)cc3)c3ncccc23)C1` [Example 3, 1-((3R,4R)-3-fluoro-4-((8-(4-(trifluoromethyl)phenyl)pyrido[2,3-d]pyridazin-5-yl)amino)pyrrolidin-1-yl)prop-2-en-1-one], the IC50 was determined as 67 nM with MCF7-Tead cell line, 27300 nM in series [2] and 93 nM against TEAD4(217-434). The same molecule had a solubility at 24 h in series [1] of 10 µM (≈ 4.31 µg/mL).

For `C#CC(=O)N1CC[C@H](Nc2nnc(-c3ccc(C(F)(F)F)cc3)c3ccccc23)C1` [Example 19, (S)-1-(3-((4-(4-(trifluoromethyl)phenyl)phthalazin-1-yl)amino)pyrrolidin-1-yl)prop-2-yn-1-one], the values for the concentration for half-maximal inhibition (IC50) (in the series with MCF7-Tead cell line; in series [2]) were 515 nM and 977 nM, respectively. Also, the solubility at 24 h in series [1] is 38 µM (≈ 15.6 µg/mL).

For the molecule `C=CC(=O)N1C[C@H](Nc2nnc(-c3ccc(C(F)(F)F)cc3)c3ccccc23)[C@@H](C(N)=O)C1` (single isomer, unassigned; enantiomer 1) [Example 31, enantiomer 1 of trans-1-acryloyl-4-((4-(4-(trifluoromethyl)phenyl)phthalazin-1-yl)amino)pyrrolidine-3-carboxamide], the 50% inhibitory concentration (IC50) is 58 nM in the series with MCF7-Tead cell line, 31100 nM in series [2] and 73 nM at TEAD4(217-434). For the same molecule, the solubility at 24 h in series [1] was found to be 534 µM (≈ 243 µg/mL).

For `C=CC(=O)N1C[C@H](O)[C@H](Nc2nnc(-c3ccc(C(F)(F)F)cc3)c3ccccc23)C1` [Example 12, 1-((3S,4R)-3-hydroxy-4-((4-(4-(trifluoromethyl)phenyl)phthalazin-1-yl)amino)pyrrolidin-1-yl)prop-2-en-1-one], the values for the 50% inhibitory concentration (IC50) (in the series on MCF7-Tead cell line; in series [2]; against TEAD4(217-434)) were 99 nM, 23500 nM and 52 nM, respectively. This molecule gave a solubility at 24 h in series [1] of 370 µM (≈ 159 µg/mL).

For `C=CC(=O)N1C[C@H](F)[C@H](Nc2nnc(-c3ccc(C(F)(F)F)cc3)c3ncccc23)C1` [Example 1, 1-((3S,4R)-3-fluoro-4-((8-(4-(trifluoromethyl)phenyl)pyrido[2,3-d]pyridazin-5-yl)amino)pyrrolidin-1-yl)prop-2-en-1-one], the half-maximal inhibitory concentration (IC50) in the series with MCF7-Tead cell line is 67 nM; in series [2], 27300 nM; at TEAD4(217-434) it was 93 nM. Further, the solubility at 24 h in series [1] amounted to 209 µM (≈ 90.2 µg/mL).

As for `C=CC(=O)N1C[C@H](F)[C@H](Nc2ncc(-c3ccc(C(F)(F)F)cc3)c3nccnc23)C1` [Example 43, 1-((3S,4R)-3-fluoro-4-((8-(4-(trifluoromethyl)phenyl)pyrido[3,4-b]pyrazin-5-yl)amino)pyrrolidin-1-yl)prop-2-en-1-one], the IC50 amounted to 11 nM with MCF7-Tead cell line, 13300 nM in series [2] and 12 nM at TEAD4(217-434). This molecule also showed a solubility at 24 h in series [1] of 16 µM (≈ 6.9 µg/mL).

Consider `C=CC(=O)N1C[C@@H](F)[C@H](Nc2nnc(-c3ccc(C(F)(F)F)cc3)c3ccccc23)C1` [Example 11, 1-((3R,4R)-3-fluoro-4-((4-(4-(trifluoromethyl)phenyl)phthalazin-1-yl)amino)pyrrolidin-1-yl)prop-2-en-1-one], for which the IC50 worked out at 156 nM with MCF7-Tead cell line, 10200 nM in series [2] and 33 nM against TEAD4(217-434). The solubility at 24 h in series [1] is 9 µM (≈ 3.87 µg/mL).

As to `C=CC(=O)N1C[C@@H](CN(C)C)[C@H](Nc2nnc(-c3ccc(C(F)(F)F)cc3)c3ccccc23)C1` [Example 46, 1-((3R,4S)-3-((dimethylamino)methyl)-4-((4-(4-(trifluoromethyl)phenyl)phthalazin-1-yl)amino)pyrrolidin-1-yl)prop-2-en-1-one], the concentration for half-maximal inhibition (IC50) in the series with MCF7-Tead cell line amounted to 283 nM; in series [2] it was 19400 nM; at TEAD4(217-434), 830 nM.

For the molecule `C=CC(=O)N1CC(Nc2nc(-c3ccc(C(F)(F)F)cc3)nc3ccccc23)C1` [Comparative Example B, 1-[3-({2-[4-(trifluoromethyl)phenyl]-4-quinazolinyl}amino)-1-azetidinyl]-2-propen-1-one, reference compound], the values for the half-maximal inhibitory concentration (IC50) (with MCF7-Tead cell line; in series [2]; at TEAD4(217-434)) were 161 nM, over 31700 nM and 30 nM, respectively. The same molecule returned a solubility at 24 h in series [1] of 2 µM (≈ 0.797 µg/mL).

Take `C=CC(=O)N1C[C@H](O)[C@H](Nc2ncc(-c3ccc(C(F)(F)F)cc3)c3ncccc23)C1` [Example 34, 1-((3S,4R)-3-hydroxy-4-((8-(4-(trifluoromethyl)phenyl)-1,6-naphthyridin-5-yl)amino)pyrrolidin-1-yl)prop-2-en-1-one]: the IC50 in the series on MCF7-Tead cell line is 9 nM; in series [2], over 31700 nM; against TEAD4(217-434), 17 nM. The same molecule displayed a solubility at 24 h in series [1] of 44 µM (≈ 18.9 µg/mL).

In the case of `C=CC(=O)N1C[C@H](O)[C@H](Nc2ncc(-c3ccc(C(F)(F)F)cn3)c3ncccc23)C1` [Example 35, 1-((3S,4R)-3-hydroxy-4-((8-(5-(trifluoromethyl)pyridin-2-yl)-1,6-naphthyridin-5-yl)amino)pyrrolidin-1-yl)prop-2-en-1-one], the IC50 with MCF7-Tead cell line is 34 nM; in series [2] it was over 31700 nM; at TEAD4(217-434), 79 nM. The solubility at 24 h in series [1] came to 801 µM (≈ 344 µg/mL).

`C=CC(=O)N1CC(C#N)[C@@H](Nc2nnc(-c3ccc(C(F)(F)F)cc3)c3ccccc23)C1` (single isomer, unassigned; enantiomer 1) [Example 30, enantiomer 1 of trans-1-acryloyl-4-((4-(4-(trifluoromethyl)phenyl)phthalazin-1-yl)amino)pyrrolidine-3-carbonitrile]: the figures for the IC50 (in the series with MCF7-Tead cell line; in series [2]; against TEAD4(217-434)) were 143 nM, 13000 nM and 100 nM, respectively. The solubility at 24 h in series [1] worked out at 191 µM (≈ 83.5 µg/mL).

For the molecule `C=CC(=O)N1C[C@H](F)[C@H](Nc2ncc(-c3ccc(C(F)(F)F)cn3)c3ncccc23)C1` [Example 36, 1-((3S,4R)-3-fluoro-4-((8-(5-(trifluoromethyl)pyridin-2-yl)-1,6-naphthyridin-5-yl)amino)pyrrolidin-1-yl)prop-2-en-1-one], the IC50 is 11 nM in the series on MCF7-Tead cell line and over 31700 nM in series [2]. Besides, the solubility at 24 h in series [1] is 82 µM (≈ 35.4 µg/mL).

For `C=CC(=O)N1C[C@H](C#N)[C@H](Nc2nnc(-c3ccc(C(F)(F)F)cc3)c3ccccc23)C1` (single isomer, unassigned; enantiomer 1) [Example 29, enantiomer 1 of cis-1-acryloyl-4-((4-(4-(trifluoromethyl)phenyl)phthalazin-1-yl)amino)pyrrolidine-3-carbonitrile], the IC50 was 94 nM in the series on MCF7-Tead cell line and 22200 nM in series [2]. The molecule also registered a solubility at 24 h in series [1] of 7 µM (≈ 3.06 µg/mL).
